Results from patent publication US8952024B2, “Herbicidal pyrimidone derivatives” (E I du Pont de Nemours and Company, priority 2009, dated 2015).

How the values were obtained:
Experiment in all cases: Test B pre-/postemergence plant response
Type in all cases: in vivo
[1] = test system: giant foxtail (Setaria faberii); conditions: Setaria faberi, post-emergence, Postemergence, scale 0 to 100 (0 no effect, 100 complete control), read-out: Plant response rating, Foxtail, Giant
Summary of the method: (§1)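 Each species received compound formulated in non-phytotoxic solvent with surfactant, either at planting into a loam and sand blend or as a foliar spray once plants reached 2 to 18 cm in peat-based medium. Plants stayed in the greenhouse 13 to 15 days before visual evaluation against controls, scored 0 (no effect) to 100 (complete control).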

[2] = test system: green foxtail (Setaria viridis)
Summary of the method: as §1

[3] = test system: large crabgrass (Digitaria sanguinalis)
Summary of the method: as §1

[4] = test system: goosegrass (Eleusine indica)
Summary of the method: as §1

[5] = test system: johnsongrass (Sorghum halepense)
Summary of the method: as §1

[6] = test system: blackgrass (Alopecurus myosuroides)
Summary of the method: as §1

[7] = test system: lambsquarters (Chenopodium album)
Summary of the method: as §1

[8] = test system: bermudagrass (Cynodon dactylon)
Summary of the method: as §1

[9] = test system: woolly cupgrass (Eriochloa villosa)
Summary of the method: as §1

[10] = 62 g ai/ha, postemergence, 0 is no effect, 100 is complete control, 13 to 15 days

## O=C1CCCC(O)=C1C(=O)c1cnc(-c2ccccc2)n(C2CCCCC2)c1=O [Compound 128, 3-cyclohexyl-5-[(2-hydroxy-6-oxo-1-cyclohexen-1-yl)carbonyl]-2-phenyl-4(3H)-pyrimidinone]
[1]; 125 g ai/ha
  pest or weed control at 125 g/ha: 98%
[1]; 250 g ai/ha, 13 to 15 days
  pest or weed control at 250 g/ha: 98%
[2]; [10]
  Foxtail, Green plant response rating (0 to 100 scale): 95
[2]; Setaria viridis, post-emergence, Postemergence, 31 g ai/ha, 0 to 100 scale (0 no effect, 100 complete control), read-out: Plant response rating, Foxtail, Green
  pest or weed control at 31 g/ha: 85%
[2]; Setaria viridis, post-emergence, Postemergence, 125 g ai/ha, scale 0 to 100 (0 no effect, 100 complete control), read-out: Plant response rating, Foxtail, Green
  pest or weed control at 125 g/ha: 95%
[2]; Setaria viridis, post-emergence, Postemergence, 250 g ai/ha, scale 0 to 100 (0 no effect, 100 complete control), 13 to 15 days, read-out: Plant response rating, Foxtail, Green
  pest or weed control at 250 g/ha: 98%
[3]; [10]
  Crabgrass, Large plant response rating (0 to 100 scale): 85
[3]; Digitaria sanguinalis, post-emergence, Postemergence, 31 g ai/ha, 0 to 100 scale (0 no effect, 100 complete control), read-out: Plant response rating, Crabgrass, Large
  pest or weed control at 31 g/ha: 85%
[3]; Digitaria sanguinalis, post-emergence, Postemergence, 125 g ai/ha, scale 0 to 100 (0 no effect, 100 complete control), read-out: Plant response rating, Crabgrass, Large
  pest or weed control at 125 g/ha: 95%
[3]; Digitaria sanguinalis, post-emergence, Postemergence, 250 g ai/ha, scale 0 to 100 (0 no effect, 100 complete control), 13 to 15 days, read-out: Plant response rating, Crabgrass, Large
  pest or weed control at 250 g/ha: 100%
[4]; [10]
  Goosegrass plant response rating (0 to 100 scale): 95
[4]; Eleusine indica, post-emergence, Postemergence, 31 g ai/ha, 0 to 100 scale (0 no effect, 100 complete control), read-out: Plant response rating, Goosegrass
  pest or weed control at 31 g/ha: 90%
[4]; Eleusine indica, post-emergence, Postemergence, 125 g ai/ha, scale 0 to 100 (0 no effect, 100 complete control), read-out: Plant response rating, Goosegrass
  pest or weed control at 125 g/ha: 98%
[4]; Eleusine indica, post-emergence, Postemergence, 250 g ai/ha, scale 0 to 100 (0 no effect, 100 complete control), 13 to 15 days, read-out: Plant response rating, Goosegrass
  pest or weed control at 250 g/ha: 98%
[5]; [10]
  Johnsongrass plant response rating (0 to 100 scale): 70
[5]; Sorghum halepense, post-emergence, Postemergence, 31 g ai/ha, 0 to 100 scale (0 no effect, 100 complete control), read-out: Plant response rating, Johnsongrass
  pest or weed control at 31 g/ha: 70%
[5]; Sorghum halepense, post-emergence, Postemergence, 125 g ai/ha, scale 0 to 100 (0 no effect, 100 complete control), read-out: Plant response rating, Johnsongrass
  pest or weed control at 125 g/ha: 85%
[5]; Sorghum halepense, post-emergence, Postemergence, 250 g ai/ha, scale 0 to 100 (0 no effect, 100 complete control), 13 to 15 days, read-out: Plant response rating, Johnsongrass
  pest or weed control at 250 g/ha: 85%
[6]; [10]
  Blackgrass plant response rating (0 to 100 scale): 5
[6]; Alopecurus myosuroides, post-emergence, 360 h, Postemergence, 31 g ai/ha, 0 to 100 scale (0 no effect, 100 complete control), read-out: Plant response rating, Blackgrass
  pest or weed control at 31 g/ha: 5%
[6]; Alopecurus myosuroides, post-emergence, 360 h, Postemergence, 125 g ai/ha, scale 0 to 100 (0 no effect, 100 complete control), read-out: Plant response rating, Blackgrass
  pest or weed control at 125 g/ha: 10%
[6]; Alopecurus myosuroides, post-emergence, 360 h, Postemergence, 250 g ai/ha, scale 0 to 100 (0 no effect, 100 complete control), 13 to 15 days, read-out: Plant response rating, Blackgrass
  pest or weed control at 250 g/ha: 15%
[7]; [10]
  Lambsquarters plant response rating (0 to 100 scale): 98
[7]; Chenopodium album, post-emergence, Postemergence, 31 g ai/ha, 0 to 100 scale (0 no effect, 100 complete control), read-out: Plant response rating, Lambsquarters
  pest or weed control at 31 g/ha: 95%
[7]; Chenopodium album, post-emergence, Postemergence, 125 g ai/ha, scale 0 to 100 (0 no effect, 100 complete control), read-out: Plant response rating, Lambsquarters
  pest or weed control at 125 g/ha: 100%
[7]; Chenopodium album, post-emergence, Postemergence, 250 g ai/ha, scale 0 to 100 (0 no effect, 100 complete control), 13 to 15 days, read-out: Plant response rating, Lambsquarters
  pest or weed control at 250 g/ha: 100%
[8]; [10]
  Bermudagrass plant response rating (0 to 100 scale): 85
[8]; Cynodon dactylon, post-emergence, Postemergence, 31 g ai/ha, 0 to 100 scale (0 no effect, 100 complete control), read-out: Plant response rating, Bermudagrass
  pest or weed control at 31 g/ha: 75%
[8]; Cynodon dactylon, post-emergence, Postemergence, 125 g ai/ha, scale 0 to 100 (0 no effect, 100 complete control), read-out: Plant response rating, Bermudagrass
  pest or weed control at 125 g/ha: 98%
[8]; Cynodon dactylon, post-emergence, Postemergence, 250 g ai/ha, scale 0 to 100 (0 no effect, 100 complete control), 13 to 15 days, read-out: Plant response rating, Bermudagrass
  pest or weed control at 250 g/ha: 100%
[9]; [10]
  Cupgrass, Woolly plant response rating (0 to 100 scale): 90
[9]; Eriochloa villosa, post-emergence, Postemergence, 31 g ai/ha, 0 to 100 scale (0 no effect, 100 complete control), read-out: Plant response rating, Cupgrass, Woolly
  pest or weed control at 31 g/ha: 85%
[9]; Eriochloa villosa, post-emergence, Postemergence, 125 g ai/ha, scale 0 to 100 (0 no effect, 100 complete control), read-out: Plant response rating, Cupgrass, Woolly
  pest or weed control at 125 g/ha: 90%
[9]; Eriochloa villosa, post-emergence, Postemergence, 250 g ai/ha, scale 0 to 100 (0 no effect, 100 complete control), 13 to 15 days, read-out: Plant response rating, Cupgrass, Woolly
  pest or weed control at 250 g/ha: 95%
